In US9957288B2, “Pyrabactin analogues to modulate plant development” (Universiteit Gent, priority 2014, dated 2018):
“Also recorded” adds a separate entry of the source. Like-named read-outs stand apart in the source and are kept apart here.

Assays:
[1] = tested on: Arabidopsis thaliana seedlings
tobacco epidermal strips = experiment: Stomatal closure assay on epidermal strips; type: cell-based, Nicotiana tabacum
[2] = tested on: Arabidopsis thaliana seeds; experiment: Arabidopsis thaliana seed germination assay; type: in vivo
[3] = tested on: etiolated Arabidopsis thaliana seedlings
[4] = tested on: Arabidopsis thaliana Columbia (Col0) seedlings; experiment: Primary root elongation of etiolated seedlings on compound medium; type: in vivo
[5] = tested on: Arabidopsis thaliana Columbia (Col0) seedlings; experiment: Lateral root initiation (lateral roots + lateral root primordia, number and density); type: in vivo
[6] = tested on: Nicotiana benthamiana leaves; experiment: Leaf dehydration assay (weight loss of pre-treated detached leaves in dry air flow); type: in vivo; details: for effect on leaf weight loss / transpiration: pre-treatment: ABA 10 and 100 μM, analogues 10 μM, 6 h dry air flow; for % weight loss (average): average of 5-10 leaves, control 29.51%
[7] = 10 μM, compared with control not-treated epidermal strips
[8] = 10 μM, compared with control not-treated seeds
[9] = adventitious root, 10 μM, compared with control not-treated seedlings
[10] = primary root, 10 μM, compared with control not-treated seedlings
[11] = 13 d old etiolated seedlings, 10 μM
[12] = lateral root, 10 μM, compared with control not-treated seedlings

Compound	Shoot ([1]; in vivo)	effect on shoot development ([1]; in vivo)	Stomata (tobacco epidermal strips)	effect on stomatal aperture (tobacco epidermal strips)	Seed germination ([2]; in vivo)	effect on seed germination ([2]; in vivo)	AR ([3]; in vivo)	effect on adventitious root formation ([3]; in vivo)	PR ([4]; in vivo)	effect on primary root growth ([4]; in vivo)	LR ([5]; in vivo)	effect on LR+ LRP density (per cm primary root) ([5]; in vivo)	effect on number of LR+ LRP (lateral root initiation) ([5]; in vivo)	further results
CCOP(=O)(NCc1ccccc1)c1ccc(F)c2ccccc12 (stereo not shown) [Analogue E6, Ethyl N-(benzyl)-P-(4-fluoronapht-1-yl)phosphonamidate]	++	inhibition of leaf size comparable with pyrabactin	+++	strongly induced stomatal closure	0	did not inhibit the germination	+++	reduction of adventitious root formation, respectively stronger or similar to pyrabactin	++	reducing the root growth comparable to pyrabactin	+++	strong density reduction (even stronger than ABA)	strong inhibitors	
O=P(O)(NCc1ccccn1)c1ccc(Br)c2ccccc12 [Analogue E10, Hydrogen N-(pyridin-2-ylmethyl)-P-(4-bromonapht-1-yl)phosphonamidate]	0													effect on stomatal aperture (tobacco epidermal strips; 10 μM): intermediate stomatal closure; Stomata (tobacco epidermal strips; [7]): +; Seed germination [2, 8]: 0; AR [3, 9]: −; effect on leaf weight loss / transpiration [6]: reduction of transpiration; effect on primary root growth ([4]; 10 μM): modest inhibitors of primary root elongation; PR [4, 10]: +; effect on LR+ LRP density (per cm primary root) [5, 11]: reduced the numbers of LR+ LRP similarly to ABA; effect on number of LR+ LRP (lateral root initiation) [5, 11]: modest to weak inhibitors of lateral root formation; LR [5, 12]: +
CCOP(=O)(OCc1ccccn1)c1ccccc1 (stereo not shown) [Analogue D2, Ethyl (pyridin-2-ylmethyl) phenylphosphonate]	0		0	did not affect the size of the stomatal aperture	0		0		0	did not show a significant effect	0	did not significantly affect the LR numbers	did not have a significant effect	
CCOP(=O)(NCc1ccncc1)c1ccc(Br)c2ccccc12 (stereo not shown) [Analogue E7, Ethyl N-(pyridin-4-ylmethyl)-P-(4-bromonapht-1-yl)phosphonamidate]	+++	strong inhibition of the seedling's shoot development	0	did not affect the size of the stomatal aperture	0		+++	reduction of adventitious root formation, respectively stronger or similar to pyrabactin	+++	strongly inhibited primary root growth	+++		strong inhibitors	LR+ LRP density ([5]; in vivo): around 5 LR+ LRP per cm primary root
CCOP(=O)(NCc1ccccc1)c1ccc(Br)c2ccccc12 (stereo not shown) [Analogue E4, Ethyl N-(benzyl)-P-(4-bromonapht-1-yl)phosphonamidate]	+++	strong inhibition of the seedling's shoot development	++	intermediate stomatal closure	+	did not inhibit the germination	+++	reduction of adventitious root formation, respectively stronger or similar to pyrabactin	+++	strongly inhibited primary root growth	+++	strong density reduction (even stronger than ABA)	strong inhibitors	cellular toxicity (inhibitory effect on plant development) ([3]; in vivo): exhibits cellular toxicity at the concentration used
CC1=CC(=O)CC(C)(C)[C@@]1(O)/C=C/C(C)=C\C(=O)O [ABA, Abscisic acid, reference compound]	+++		+++	rapidly induces stomatal closure	+++	inhibited seed germination stronger than pyrabactin	0	not affected	+++		+++	reduced the number of roots per cm primary root	strongly reduced the number of LR+ LRP	relative stomatal aperture (tobacco epidermal strips): 40%; time to 50% of closure of stomata (tobacco epidermal strips): ≤ 10 min; % weight loss (average) ([6]; leaves pre-treated with 10 μM): 18.54%; % weight loss (average) ([6]; leaves pre-treated with 100 μM): 16.99%; effect on leaf weight loss / transpiration [6]: significantly less weight loss; reduction of primary root length ([4]; in vivo): 5 fold
O=S(=O)(NCc1ccccn1)c1ccc(Br)c2ccccc12 [Pyrabactin, pyrabactin]														effect on shoot development ([1]; 10 μM): leaf size was also significantly reduced; Shoot ([1]; 10 μM, compared with control not-treated seedlings): ++; effect on shoot development ([1]; 10 μM, listed as pyrabactin): seedlings with a smaller shoot than control seedlings; Stomata (tobacco epidermal strips; [7]): +; effect on stomatal aperture (tobacco epidermal strips; 10 μM, listed as pyrabactin): induced stomatal closure, rapidly but to a much lower degree than ABA; also recorded: demonstrated an effect on the stomata; Seed germination [2, 8]: ++; effect on seed germination ([2]; different concentrations, gradual and dose-dependent): inhibited seed germination; effect on adventitious root formation ([3]; 10 μM): reduced the formation of these roots; AR [3, 9]: +++; reduction of primary root length ([4]; 10 μM): 2.5 fold; PR [4, 10]: ++; effect on LR+ LRP density (per cm primary root) [5, 11]: significantly increased the LR+ LRP density; effect on number of LR+ LRP (lateral root initiation) [5, 11]: only did moderately affect lateral root initiation; LR [5, 12]: ++
CCOP(=O)(Nc1cccnc1)c1ccccc1 (stereo not shown) [Analogue D3, Ethyl N-(pyridin-3-yl)-P-(phenyl)phosphonamidate]	0		0	intermediate stomatal closure	0		0		0	did not show a significant effect	0	increased the LR density	enhanced lateral root induction	
CCOP(=O)(NCc1ccccn1)c1cccc2ccccc12 (stereo not shown) [Analogue E9, Ethyl N-(pyridin-2-ylmethyl)-P-(napht-1-yl)phosphonamidate]	0		0	did not affect the size of the stomatal aperture	0		−		0	modest inhibitors of primary root elongation	+	reduced the numbers of LR+ LRP similarly to ABA	modest to weak inhibitors of lateral root formation	effect on leaf weight loss / transpiration [6]: reduction of transpiration
CCOP(=O)(NCc1ccccn1)c1ccc(F)c2ccccc12 (stereo not shown) [Analogue E2, Ethyl N-(pyridin-2-ylmethyl)-P-(4-fluoronapht-1-yl)phosphonamidate]	−	stimulated the development of leaves in comparison with the control	+++		0		−	stimulated AR formation	0	did not show a significant effect	+	reduced the numbers of LR+ LRP similarly to ABA	modest to weak inhibitors of lateral root formation	stomata closure to % of the start opening (tobacco epidermal strips): 50%; time to 50% of closure of stomata (tobacco epidermal strips): 30 min
CCOP(=O)(NCc1cccnc1)c1ccc(F)c2ccccc12 (stereo not shown) [Analogue E5, Ethyl N-(pyridin-3-ylmethyl)-P-(4-fluoronapht-1-yl)phosphonamidate]	0		+	intermediate stomatal closure	+++	significant reduction of the percentage of germinating seeds	0		+	modest inhibitors of primary root elongation	+		modest to weak inhibitors of lateral root formation	
CCOP(=O)(NCc1cccnc1)c1ccc(Br)c2ccccc12 (stereo not shown) [Analogue E3, Ethyl N-(pyridin-3-ylmethyl)-P-(4-bromonapht-1-yl)phosphonamidate]	0		++	intermediate stomatal closure	0		−		0	did not show a significant effect	+	reduced the numbers of LR+ LRP similarly to ABA	modest to weak inhibitors of lateral root formation	
